Data set [1] relates to TC-32 (Ewing sarcoma, EWS-FLI1 Type 1) cell line. The note with it: for TC-32 Ewing sarcoma EWS-FLI1 Type 1 GI50: 72 h growth inhibition, TC-32 cells; for GI50 ratio PC-3:TC-32: selectivity, GI50 in PC-3 over GI50 in TC-32.
The subject of data set [2] is PC-3 (prostate cancer, no ETS translocation) cell line. The experiment in a line: 72 h growth inhibition (GI50) assay in PC-3. The note with it: read-out: PC-3 Prostate cancer No ETS Translocation GI50.
Data set [3] relates to TC-71 Ewing sarcoma cells (EWS-FLI1 Type 1). The note with it: 72 h growth inhibition.
The subject of data set [4] is ES-7 Ewing sarcoma cells (EWS-FLI1 Type 4). Put plainly: 72 h GI50 assay in ES-7. The note with it: read-out: ES-7 EWS-FLI1 Type 4 GI50; 72 h growth inhibition.
In data set [5] the test system is VCaP prostate cancer cells (TMPRSS2-ERG). The experiment in a line: 72 h GI50 assay in VCaP.
Data set [6] relates to A-673 Ewing sarcoma cells (EWS-FLI1 Type 1). The experiment in a line: 72 h GI50 assay in A-673. The note with it: read-out: A-673 EWS-FLI1 Type 1 GI50; 72 h growth inhibition.
Data set [7] concerns PANC-1 cells. Put plainly: 72 h GI50 assay in PANC-1. The note with it: read-out: PANC-1 GI50; 72 h growth inhibition.
Data set [8] deals with RD-ES Ewing sarcoma cells (EWS-FLI1 Type 2). Put plainly: 72 h GI50 assay in RD-ES. The note with it: read-out: RD-ES EWS-FLI1 Type 2 GI50; 72 h growth inhibition.
In data set [9] the test system is DU 145 cells. The experiment in a line: 72 h GI50 assay in DU 145. The note with it: read-out: DU 145 GI50; 72 h growth inhibition.
Data set [10] relates to HeLa cells. The experiment in a line: 72 h GI50 assay in HeLa. The note with it: read-out: HeLa GI50; 72 h growth inhibition.
Data set [11] deals with ES-8 Ewing sarcoma cells (EWS-FLI1 Type 2). Put plainly: 72 h GI50 assay in ES-8. The note with it: read-out: ES-8 EWS-FLI1 Type 2 GI50; 72 h growth inhibition.
In data set [12] the test system is 5838 Ewing sarcoma cells (EWS-ERG). Put plainly: 72 h GI50 assay in 5838.
In data set [13] the test system is DMS 114 cells. The experiment in a line: 72 h GI50 assay in DMS 114. The note with it: read-out: DMS 114 GI50; 72 h growth inhibition.
In data set [14] the test system is Ewing sarcoma cell lines (TC-32, 5838, RD-ES, TC-71, A-673, ES-2, ES-7, ES-8). The experiment in a line: Median GI50 in panel of Ewing sarcoma cell lines.
The test system of data set [15] is HCT 116 cells. The experiment in a line: 72 h GI50 assay in HCT 116. The note with it: read-out: HCT 116 GI50; 72 h growth inhibition.
For data set [16], the system named is A549 cells. Put plainly: 72 h GI50 assay in A549. The note with it: read-out: A549 GI50; 72 h growth inhibition.
For data set [17], the system named is ES-2 Ewing sarcoma cells (EWS-FLI1 Type 3). Put plainly: 72 h GI50 assay in ES-2. The note with it: read-out: ES-2 EWS-FLI1 Type 3 GI50; 72 h growth inhibition.
The mark [18] stands for this setting: 72 h growth inhibition, PC-3 cells.

We go through 14 compounds from patent US11224609B2, “Mithramycin derivatives having increased selectivity and anti-cancer activity” (University of Kentucky Research Foundation, priority 2017, dated 2022).

Where two headings read alike, the source gives them in different places.

Broadly, the GI50 is the concentration that inhibits growth by half. As to `COC(=O)C(Cc1cn(Cc2ccccc2)c2ccccc12)NC(=O)C(OC)C1Cc2cc3cc(OC4CC(OC5CC(O)C(O)C(C)O5)C(O)C(C)O4)c(C)c(O)c3c(O)c2C(=O)C1OC1CC(OC2CC(OC3CC(C)(O)C(O)C(C)O3)C(O)C(C)O2)C(O)C(C)O1` (centres unmarked) [Analogue 46], in data set [1], the “TC-32 Ewing sarcoma EWS-FLI1 Type 1 GI50” value was found to be 2297 nM. Moreover, the GI50 in data set [2] (setting [18]) was > 10000 nM.
On to `C=CCn1cc(CC(NC(=O)C(OC)C2Cc3cc4cc(OC5CC(OC6CC(O)C(O)C(C)O6)C(O)C(C)O5)c(C)c(O)c4c(O)c3C(=O)C2OC2CC(OC3CC(OC4CC(C)(O)C(O)C(C)O4)C(O)C(C)O3)C(O)C(C)O2)C(=O)OC)c2ccccc21` (centres unmarked) [Analogue 47], for which, in data set [1], the “TC-32 Ewing sarcoma EWS-FLI1 Type 1 GI50” value is reported as 2715 nM and the “GI50 ratio PC-3:TC-32” value was determined as 1.2. The GI50 in [2] (setting [18]) came out at 3140 nM.
As to `COC(=O)C(Cc1c[nH]c2ccc(OC)cc12)NC(=O)C(OC)C1Cc2cc3cc(OC4CC(OC5CC(O)C(O)C(C)O5)C(O)C(C)O4)c(C)c(O)c3c(O)c2C(=O)C1OC1CC(OC2CC(OC3CC(C)(O)C(O)C(C)O3)C(O)C(C)O2)C(O)C(C)O1` (centres unmarked) [Analogue 49], in [1], the “TC-32 Ewing sarcoma EWS-FLI1 Type 1 GI50” value is 675 nM and the “GI50 ratio PC-3:TC-32” value stood at 0.9. The GI50 in data set [2] (setting [18]) came to 617 nM.
Turning to `COC(=O)C(Cc1c[nH]c2ccc([N+](=O)[O-])cc12)NC(=O)C(OC)C1Cc2cc3cc(OC4CC(OC5CC(O)C(O)C(C)O5)C(O)C(C)O4)c(C)c(O)c3c(O)c2C(=O)C1OC1CC(OC2CC(OC3CC(C)(O)C(O)C(C)O3)C(O)C(C)O2)C(O)C(C)O1` (centres unmarked) [Analogue 50], in data set [1], the “TC-32 Ewing sarcoma EWS-FLI1 Type 1 GI50” value amounted to 353 nM and the “GI50 ratio PC-3:TC-32” value is listed as 1.8. Moreover, the GI50 in [2] (setting [18]) turned out to be 646 nM.
`COC(=O)C(Cc1c[nH]c2c(-c3ccccc3)cccc12)NC(=O)C(OC)C1Cc2cc3cc(OC4CC(OC5CC(O)C(O)C(C)O5)C(O)C(C)O4)c(C)c(O)c3c(O)c2C(=O)C1OC1CC(OC2CC(OC3CC(C)(O)C(O)C(C)O3)C(O)C(C)O2)C(O)C(C)O1` (centres unmarked) [Analogue 52]: the “TC-32 Ewing sarcoma EWS-FLI1 Type 1 GI50” value in data set [1] was 2402 nM. Moreover, the GI50 in data set [2] (setting [18]) was > 10000 nM.
As to `C=CCc1cccc2c(CC(NC(=O)C(OC)C3Cc4cc5cc(OC6CC(OC7CC(O)C(O)C(C)O7)C(O)C(C)O6)c(C)c(O)c5c(O)c4C(=O)C3OC3CC(OC4CC(OC5CC(C)(O)C(O)C(C)O5)C(O)C(C)O4)C(O)C(C)O3)C(=O)OC)c[nH]c12` (centres unmarked) [Analogue 53], in data set [1], the “TC-32 Ewing sarcoma EWS-FLI1 Type 1 GI50” value was 794 nM and the “GI50 ratio PC-3:TC-32” value is given as 3.8. Moreover, in data set [2] (setting [18]), the GI50 was 2990 nM.
On the same counts, the results for `COC(=O)C(Cc1c[nH]c2cc(-n3cc(-c4ccccc4)nn3)ccc12)NC(=O)C(OC)C1Cc2cc3cc(OC4CC(OC5CC(O)C(O)C(C)O5)C(O)C(C)O4)c(C)c(O)c3c(O)c2C(=O)C1OC1CC(OC2CC(OC3CC(C)(O)C(O)C(C)O3)C(O)C(C)O2)C(O)C(C)O1` (centres unmarked) [Analogue 54] are 1030 nM, 5.7 and 5880 nM.
On the same counts, the results for `COC(=O)C(Cc1c[nH]c2cc(C(F)(F)F)ccc12)NC(=O)C(OC)C1Cc2cc3cc(OC4CC(OC5CC(O)C(O)C(C)O5)C(O)C(C)O4)c(C)c(O)c3c(O)c2C(=O)C1OC1CC(OC2CC(OC3CC(C)(O)C(O)C(C)O3)C(O)C(C)O2)C(O)C(C)O1` (centres unmarked) [Analogue 55] are 2339 nM, 1.0 and 2400 nM.
As for `COC(=O)C(Cc1c[nH]c2cc3ccccc3cc12)NC(=O)C(OC)C1Cc2cc3cc(OC4CC(OC5CC(O)C(O)C(C)O5)C(O)C(C)O4)c(C)c(O)c3c(O)c2C(=O)C1OC1CC(OC2CC(OC3CC(C)(O)C(O)C(C)O3)C(O)C(C)O2)C(O)C(C)O1` (centres unmarked) [Analogue 57], in [1], the “TC-32 Ewing sarcoma EWS-FLI1 Type 1 GI50” value was 3505 nM. The “fold decrease in activity in the TC-32 cell line” value in data set [1] (compared with the tryptophan parent) is ~34 fold. The GI50 in data set [2] (setting [18]) was > 10000 nM.
Consider `COC(=O)C(Cc1ccc2ccccc2c1)NC(=O)C(OC)C1Cc2cc3cc(OC4CC(OC5CC(O)C(O)C(C)O5)C(O)C(C)O4)c(C)c(O)c3c(O)c2C(=O)C1OC1CC(OC2CC(OC3CC(C)(O)C(O)C(C)O3)C(O)C(C)O2)C(O)C(C)O1` (centres unmarked) [Analogue 58], for which, in data set [1], the “TC-32 Ewing sarcoma EWS-FLI1 Type 1 GI50” value worked out at 541 nM and the “GI50 ratio PC-3:TC-32” value is listed as 3.0. Besides, in data set [2] (setting [18]), the GI50 stood at 1600 nM.
Regarding `COC(=O)C(Cc1cn(C)c2ccccc12)NC(=O)C(Cc1cn(C)c2ccccc12)NC(=O)C(OC)C1Cc2cc3cc(OC4CC(OC5CC(O)C(O)C(C)O5)C(O)C(C)O4)c(C)c(O)c3c(O)c2C(=O)C1OC1CC(OC2CC(OC3CC(C)(O)C(O)C(C)O3)C(O)C(C)O2)C(O)C(C)O1` (centres unmarked) [Analogue 62], in data set [1], the “TC-32 Ewing sarcoma EWS-FLI1 Type 1 GI50” value worked out at 7834 nM. In addition, in [2] (setting [18]), the concentration for 50% growth inhibition (GI50) is > 10000 nM.
As to `COC(=O)C(Cc1ccccc1)NC(=O)C(Cc1ccccc1)NC(=O)C(OC)C1Cc2cc3cc(OC4CC(OC5CC(O)C(O)C(C)O5)C(O)C(C)O4)c(C)c(O)c3c(O)c2C(=O)C1OC1CC(OC2CC(OC3CC(C)(O)C(O)C(C)O3)C(O)C(C)O2)C(O)C(C)O1` (centres unmarked) [Analogue 63, MTMSA-Phe-Phe], the “TC-71 EWS-FLI1 Type 1 GI50” value in data set [3] was 211 nM. Besides, the GI50 in data set [4] amounted to 910 nM; in [5] (read-out: VCaP Prostate Cancer TMPRSS2-ERG GI50, 72 h growth inhibition, VCaP cells), 442 nM; in data set [6], 491 nM; in data set [7], 1960 nM; in data set [8], 3050 nM; in data set [9] it was 159 nM. Also, the concentration for 50% growth inhibition (GI50) turned out to be 1770 nM in data set [10]; 542 nM in data set [11]; 579 nM in data set [12] (read-out: 5838 Ewing Sarcoma EWS-ERG GI50, 72 h growth inhibition, 5838 cells); 2310 nM in [13]; 1130 nM in data set [2] (setting [18]); 437 nM in data set [15]. In addition, the “Ratio of median GI50 Prostate cells lacking TMPRSS2-ERG:VCaP” value in [5] (selectivity for VCaP over other prostate cancer cell lines) is recorded as 2.6. Further, the “TC-32 Ewing sarcoma EWS-FLI1 Type 1 GI50” value in data set [1] came out at 232 nM. Moreover, the “GI50 ratio PC-3:TC-32” value in data set [1] is 4.9. Besides, the “Ratio of median GI50 Non-Ewing sarcoma cell lines (cf Table 3):5838” value in [12] (selectivity for 5838 cells) turned out to be 3.4. In addition, in [14] (median GI50 non-Ewing panel over Ewing panel), the “Ratio of Median GI50 non-Ewing sarcoma:Ewing sarcoma (Selectivity Index)” value is 3.5. In addition, the “Selectivity Index ratio Analogues:MTM (1)” value in data set [14] (selectivity index relative to MTM (1)) turned out to be 2.3.
As for `CO[C@H](C(=O)O)[C@@H]1Cc2cc3cc(OC4CC(OC5CC(O)[C@H](O)C(C)O5)[C@H](O)C(C)O4)c(C)c(O)c3c(O)c2C(=O)[C@H]1OC1CC(OC2CC(OC3CC(C)(O)[C@H](O)C(C)O3)[C@@H](O)C(C)O2)[C@H](O)C(C)O1` (some centres unmarked) [MTMSA (2), Mithramycin SA, reference compound], the “TC-32 Ewing sarcoma EWS-FLI1 Type 1 GI50” value in data set [1] is listed as >10000 nM. Moreover, in data set [2] (Homo sapiens, PC-3, 72 h), the GI50 was > 10000 nM.
Turning to “Mithramycin SA Phenylalanine [MTMSA-Phe (4), reference compound]”, the GI50 in data set [16] is 1240 nM; in data set [4], 156 nM; in [7], 261 nM; in data set [17], 261 nM; in [8], 91 nM; in data set [9], 315 nM. For the same compound, the GI50 stood at 545 nM in data set [10]; 72 nM in data set [11]; 483 nM in [13]; 117 nM in data set [14] (read-out: Median GI50 in Ewing sarcoma cell lines, median over 8 Ewing sarcoma cell lines, 72 h); 910 nM in [2] (setting [18]); 256 nM in data set [15]. Further, the “TC-71 EWS-FLI1 Type 1 GI50” value in data set [3] came to 143 nM. In addition, the “TC-32 Ewing sarcoma EWS-FLI1 Type 1 GI50” value in [1] came out at 32 nM.
